Reference: the supplement of paper PMC10331698
± gives the standard deviation of the averaged measurements.

Key:
Test in all cases: level (log10 ratio to DMSO vehicle control); higher = higher biomarker level / cell amount than vehicle control
Details in all cases: in DMSO
[1] = compound: CNS(=O)(=O)C(F)(F)C(F)(F)C(F)(F)C(F)(F)C(F)(F)C(F)(F)C(F)(F)C(F)(F)F [N-Methylperfluorooctanesulfonamide]
Description: (§1)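 BioMAP Diversity Plus panel of 12 human primary cell co-culture systems (3C, 4H, LPS, SAg, BT, BF4T, BE3C, CASM3C, HDF3CGF, KF3CT, MyoF, Mphg). Compounds were added 1 h before stimulation and left for 24 h (MyoF 48 h; BT 72 h for soluble read-outs or 6 d for IgG). Biomarkers were read by ELISA, cytotoxicity by SRB, PBMC viability and proliferation by Alamar Blue. Each well value was divided by the mean of 8 DMSO control wells on the same plate and log10 transformed; duplicate blinded samples were tested at 4 concentrations.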

[2] = compound: O=C(O)C(F)(F)C(F)(F)C(F)(F)C(F)(F)C(F)(F)C(F)(F)C(F)(F)C(F)(F)C(F)(F)C(F)(F)C(F)(F)C(F)(F)F [Perfluorotridecanoic acid]
Description: as §1

Perfluorohexanoic acid = compound: O=C(O)C(F)(F)C(F)(F)C(F)(F)C(F)(F)C(F)(F)F [Perfluorohexanoic acid]
Description: as §1

[3] = compound: O=C(O)CCC(F)(F)C(F)(F)C(F)(F)C(F)(F)C(F)(F)F [2H,2H,3H,3H-Perfluorooctanoic acid]
Description: as §1

[4] = compound: O=P(O)(O)CCC(F)(F)C(F)(F)C(F)(F)C(F)(F)C(F)(F)C(F)(F)C(F)(F)C(F)(F)F [((Perfluorooctyl)ethyl)phosphonic acid]
Description: as §1

1H,1H-Heptafluorobutanol = compound: OCC(F)(F)C(F)(F)C(F)(F)F [1H,1H-Heptafluorobutanol]
Description: as §1

Test System: 4H:CD62P/P-selectin
- level (log10) ([1]; 6700 nM): 0.0265 ± 0.011
- level (log10) ([1]; 20000 nM): -0.0345 ± 0.011
- level (log10) ([1]; 60000 nM): -0.0685 ± 0.0092
- level (log10) ([2]; 1500 nM): -0.0285 ± 0.016
- level (log10) ([2]; 4400 nM): -0.017 ± 0.0085
- level (log10) ([2]; 13000 nM): 0.0125 ± 0.013
- level (log10) ([2]; 40000 nM): 0.021 ± 0.011
- level (log10) (Perfluorohexanoic acid; 6700 nM): 0.0235 ± 0.064
- level (log10) (Perfluorohexanoic acid; 20000 nM): 0.0555 ± 0.032
- level (log10) (Perfluorohexanoic acid; 60000 nM): 0.0255 ± 0.028
- level (log10) ([3]; 6700 nM): 0.005 ± 0.048
- level (log10) ([3]; 20000 nM): -0.041 ± 0.073
- level (log10) ([3]; 60000 nM): 0.002 ± 0.034
- level (log10) ([4]; 6700 nM): -0.0285 ± 0.019
- level (log10) ([4]; 20000 nM): -0.0235 ± 0.015
- level (log10) ([4]; 60000 nM): -0.126 ± 0.022
- level (log10) (1H,1H-Heptafluorobutanol; 6700 nM): 0.0195 ± 0.064
- level (log10) (1H,1H-Heptafluorobutanol; 20000 nM): -0.007 ± 0.14
- level (log10) (1H,1H-Heptafluorobutanol; 60000 nM): 0.044 ± 0.15

Test System: BT:sIL-2
- level (log10) ([1]; 6700 nM): -0.0385 ± 0.073
- level (log10) ([1]; 20000 nM): -0.0105 ± 0.032
- level (log10) ([1]; 60000 nM): 0.0385 ± 0.083
- level (log10) ([2]; 1500 nM): 0.064
- level (log10) ([2]; 4400 nM): 0.061 ± 0.0042
- level (log10) ([2]; 13000 nM): 0.0925 ± 0.022
- level (log10) ([2]; 40000 nM): 0.093 ± 0.14
- level (log10) (Perfluorohexanoic acid; 6700 nM): -0.0225 ± 0.0064
- level (log10) (Perfluorohexanoic acid; 20000 nM): 0.0345 ± 0.098
- level (log10) (Perfluorohexanoic acid; 60000 nM): 0.0275 ± 0.074
- level (log10) ([3]; 6700 nM): -0.0225 ± 0.036
- level (log10) ([3]; 20000 nM): 0.0065 ± 0.044
- level (log10) ([3]; 60000 nM): -0.05 ± 0.072
- level (log10) ([4]; 6700 nM): 0.0065 ± 0.036
- level (log10) ([4]; 20000 nM): 0.067 ± 0.069
- level (log10) ([4]; 60000 nM): -0.107 ± 0.22
- level (log10) (1H,1H-Heptafluorobutanol; 6700 nM): -0.0065 ± 0.077
- level (log10) (1H,1H-Heptafluorobutanol; 20000 nM): -0.0265 ± 0.011
- level (log10) (1H,1H-Heptafluorobutanol; 60000 nM): 0.0365 ± 0.029

Test System: BF4T:CD54/ICAM-1
- level (log10) ([1]; 6700 nM): 0.009 ± 0.024
- level (log10) ([1]; 20000 nM): 0.013 ± 0.0085
- level (log10) ([1]; 60000 nM): 0.028 ± 0.011
- level (log10) ([2]; 1500 nM): 0.01 ± 0.023
- level (log10) ([2]; 4400 nM): 0.0115 ± 0.015
- level (log10) ([2]; 13000 nM): -0.01 ± 0.0028
- level (log10) ([2]; 40000 nM): 0.0115 ± 0.025
- level (log10) (Perfluorohexanoic acid; 6700 nM): -0.011 ± 0.0014
- level (log10) (Perfluorohexanoic acid; 20000 nM): -0.0135 ± 0.0064
- level (log10) (Perfluorohexanoic acid; 60000 nM): -0.0005 ± 0.0021
- level (log10) ([3]; 6700 nM): -0.0175 ± 0.018
- level (log10) ([3]; 20000 nM): -0.0115 ± 0.0021
- level (log10) ([3]; 60000 nM): -0.0075 ± 0.0092
- level (log10) ([4]; 6700 nM): 0.0035 ± 0.029
- level (log10) ([4]; 20000 nM): 0.001 ± 0.031
- level (log10) ([4]; 60000 nM): -0.0035 ± 0.046
- level (log10) (1H,1H-Heptafluorobutanol; 6700 nM): 0.0035 ± 0.0021
- level (log10) (1H,1H-Heptafluorobutanol; 20000 nM): 0.008 ± 0.0085
- level (log10) (1H,1H-Heptafluorobutanol; 60000 nM): 0.001 ± 0.013

Test System: BE3C:EGFR
- level (log10) ([1]; 6700 nM): 0.001 ± 0.0057
- level (log10) ([1]; 20000 nM): -0.0005 ± 0.0064
- level (log10) ([1]; 60000 nM): -0.0305 ± 0.026
- level (log10) ([2]; 1500 nM): 0.0145 ± 0.04
- level (log10) ([2]; 4400 nM): -0.008 ± 0.031
- level (log10) ([2]; 13000 nM): 0.0005 ± 0.022
- level (log10) ([2]; 40000 nM): 0.006 ± 0.0014
- level (log10) (Perfluorohexanoic acid; 6700 nM): 0.003 ± 0.0014
- level (log10) (Perfluorohexanoic acid; 20000 nM): -0.005 ± 0.0028
- level (log10) (Perfluorohexanoic acid; 60000 nM): 0.0025 ± 0.015
- level (log10) ([3]; 6700 nM): -0.004 ± 0.0042
- level (log10) ([3]; 20000 nM): -0.0225 ± 0.029
- level (log10) ([3]; 60000 nM): -0.008 ± 0.0099
- level (log10) ([4]; 6700 nM): -0.025 ± 0.014
- level (log10) ([4]; 20000 nM): -0.0355 ± 0.025
- level (log10) ([4]; 60000 nM): -0.0345 ± 0.033
- level (log10) (1H,1H-Heptafluorobutanol; 6700 nM): 0.009 ± 0.014
- level (log10) (1H,1H-Heptafluorobutanol; 20000 nM): 0.0135 ± 0.022
- level (log10) (1H,1H-Heptafluorobutanol; 60000 nM): 0.016 ± 0.027

Test System: 3C:Proliferation
- level (log10) ([1]; 6700 nM): -0.024 ± 0.02
- level (log10) ([1]; 20000 nM): -0.125 ± 0.041
- level (log10) ([1]; 60000 nM): -0.338 ± 0.16
- level (log10) ([2]; 1500 nM): -0.056 ± 0.048
- level (log10) ([2]; 4400 nM): -0.025 ± 0.0085
- level (log10) ([2]; 13000 nM): -0.348 ± 0.38
- level (log10) ([2]; 40000 nM): -0.811 ± 0.1
- level (log10) (Perfluorohexanoic acid; 6700 nM): -0.0055 ± 0.012
- level (log10) (Perfluorohexanoic acid; 20000 nM): -0.006 ± 0.0028
- level (log10) (Perfluorohexanoic acid; 60000 nM): -0.01 ± 0.04
- level (log10) ([3]; 6700 nM): -0.0415 ± 0.022
- level (log10) ([3]; 20000 nM): -0.038 ± 0.033
- level (log10) ([3]; 60000 nM): -0.007 ± 0.0014
- level (log10) ([4]; 6700 nM): -0.0505 ± 0.019
- level (log10) ([4]; 20000 nM): -0.172 ± 0.071
- level (log10) ([4]; 60000 nM): -0.481 ± 0.18
- level (log10) (1H,1H-Heptafluorobutanol; 6700 nM): 0.0075 ± 0.005
- level (log10) (1H,1H-Heptafluorobutanol; 20000 nM): 0.02 ± 0.025
- level (log10) (1H,1H-Heptafluorobutanol; 60000 nM): -0.0595 ± 0.005
